The source made the active and inactive calls. The rule behind the calls is not given here. Some results are limits rather than exact numbers.

In series [1] the test system is Hepatitis C virus. Put plainly: Antiviral activity against HCV genotype 5a subgenomic replicon infected in human Huh7-Lunet cells assessed as inhibition of viral replication by luciferase reporter gene assay. It is filed as functional, cell-based, Hepacivirus hominis. The settings on record: Huh-7.
The test system of series [2] is Hepatitis C virus. Put plainly: Antiviral activity against HCV genotype 1a subgenomic replicon infected in human Huh7-Lunet cells assessed as inhibition of viral replication by luciferase reporter gene assay. It counts as functional, cell-based, Hepacivirus hominis. The settings on record: subtype 1a, Huh-7.
Series [3] can be described thus: Drug metabolism in human hepatocytes assessed as cytidine triphosphate metabolite formation at 10 uM after 1 to 24 hrs by LC-MS/MS method. It counts as ADME, cell-based, Hepatocyte.
The test system of series [4] is Hepatitis C virus. Put plainly: Antiviral activity against HCV genotype 3a subgenomic replicon infected in human Huh7-Lunet cells assessed as inhibition of viral replication by luciferase reporter gene assay. It counts as functional, cell-based, Hepacivirus hominis. The following applies: Huh-7.
Series [5] has as its system Hepatitis C virus. Put plainly: Antiviral activity against HCV genotype 1b subgenomic replicon expressing NS5B RNA dependent RNA polymerase S282T mutant infected in human HuH7 Luc-neo cells assessed as inhibition of viral replication by luciferase reporter gene assay relative to wild type HCV genotype 1b. It counts as functional, Hepacivirus hominis.
The test system of series [6] is Hepatitis C virus. Put plainly: Antiviral activity against HCV genotype 4a subgenomic replicon infected in human Huh7-Lunet cells assessed as inhibition of viral replication by luciferase reporter gene assay. The settings on record: Huh-7. It counts as functional, cell-based, Hepacivirus hominis.
Series [7] concerns Hepatitis C virus. Put plainly: Antiviral activity against HCV genotype 6a subgenomic replicon infected in human Huh7-Lunet cells assessed as inhibition of viral replication by luciferase reporter gene assay. It is filed as functional, cell-based, Hepacivirus hominis. The settings on record: Huh-7.
In series [8] the test system is Hepatitis C virus. Put plainly: Antiviral activity against HCV genotype 1b subgenomic replicon. It counts as functional, Hepacivirus hominis.
A short description of series [9]: Drug metabolism in human hepatocytes assessed as ((2R,3R,4R,5R)-5-(2,4-dioxo-3,4-dihydropyrimidin-1(2H)-yl)-4-fluoro-3-hydroxy-4-methyltetrahydrofuran-2-yl)methyl tetrahydrogen triphosphate formation at 10 uM after 1 to 24 hrs by LC-MS/MS method. It counts as ADME, cell-based, Hepatocyte.
For series [10], the system named is Hepatitis C virus. Put plainly: Antiviral activity against HCV genotype 2a subgenomic replicon. It counts as functional, Hepacivirus hominis.
Series [11] is described as follows: Inhibition of HCV genotype 1b NS5B RNA dependent RNA polymerase. More on the design: species or system Hepatitis C virus subtype 1b.
Series [12] is described as follows: Stability in human whole blood assessed as half life at 2 uM by LC-MS/MS method. It is filed as ADME.
A short description of series [13]: Stability in human liver S9 fraction assessed as half life at 2 uM by LC-MS/MS method. It is filed as ADME, tissue-based.
The test system of series [14] is Canis familiaris. Put plainly: Drug metabolism in dog liver assessed as ((2R,3R,5R)-5-(4-amino-2-oxopyrimidin-1(2H)-yl)-4,4-dichloro-3-hydroxytetrahydrofuran-2-yl)methyl tetrahydrogen triphosphate formation at 50 mg/kg/day, po for 4 days. It is filed as ADME, organism-based, Canis lupus familiaris. The settings on record: in vivo, 96 h.
Series [15] can be described thus: Cytotoxic activity against human HuH7 cells incubated for 6 days by CCK8 assay. It counts as cell-based, Huh-7.
Series [16] relates to Hepatitis C virus. Put plainly: Antiviral activity against HCV genotype 1b subgenomic replicon infected in human HuH7 Luc-neo cells assessed as inhibition of viral replication by luciferase reporter gene assay. The settings on record: Huh-7. It is filed as functional, cell-based, Hepacivirus hominis.
Series [17] can be described thus: Drug metabolism in human hepatocytes assessed as ((2R,3R,5R)-5-(4-amino-2-oxopyrimidin-1(2H)-yl)-4,4-dichloro-3-hydroxytetrahydrofuran-2-yl)methyl tetrahydrogen triphosphate formation at 10 uM after 1 to 24 hrs by LC-MS/MS method. It is filed as ADME, cell-based, Hepatocyte.
The subject of series [18] is Canis familiaris. Put plainly: Drug metabolism in dog liver assessed as ((2R,3R,5R)-5-(4-amino-2-oxopyrimidin-1(2H)-yl)-4,4-dichloro-3-hydroxytetrahydrofuran-2-yl)methyl tetrahydrogen triphosphate formation at 50 mg/kg/day, po for 4 days measured at 4 hrs on day 4. It counts as ADME, organism-based, Canis lupus familiaris. The following applies: in vivo.
Series [19] can be described thus: Drug metabolism in human hepatocytes assessed as ((2R,3R,5R)-4,4-dichloro-5-(2,4-dioxo-3,4-dihydropyrimidin-1(2H)-yl)-3-hydroxytetrahydrofuran-2-yl)methyl tetrahydrogen triphosphate formation at 10 uM after 1 to 24 hrs by LC-MS/MS method. It is filed as ADME, cell-based, Hepatocyte.
Series [20] is described as follows: Stability in human intestinal […] S9 fraction assessed as half life at 2 uM by LC-MS/MS method. It counts as ADME.
Series [21] concerns Canis familiaris. Put plainly: Drug metabolism in dog liver assessed as ((2R,3R,5R)-4,4-dichloro-5-(2,4-dioxo-3,4-dihydropyrimidin-1(2H)-yl)-3-hydroxytetrahydrofuran-2-yl)methyl tetrahydrogen triphosphate formation at 50 mg/kg/day, po for 4 days measured at 4 hrs on day 4. It is filed as ADME, organism-based, Canis lupus familiaris. The settings on record: in vivo.
Series [22] can be described thus: (§1) Inhibition of HCV genotype 1b NS5B Cdelta21 RNA dependent RNA polymerase using cIRES, GTP, UTP and CTP incubated for 30 mins in presence of [3H]-ATP/ATP mixture by scintillation counting method. More on the design: species or system Hepatitis C virus subtype 1b.
The subject of series [23] is Hepatitis C virus subtype 1b. Described as §1.

`CC(C)OC(=O)[C@H](C)N[P@@](=O)(OC[C@H]1O[C@@H](n2ccc(=O)[nH]c2=O)[C@](C)(F)[C@@H]1O)Oc1ccccc1`: the EC50 was found to be 120 nM in the series with Hepatitis C virus [1]; 170 nM in the series on Hepatitis C virus [2]; 130 nM in the series with Hepatitis C virus [4]; 230 nM in the series on Hepatitis C virus [6]; 180 nM in the series on Hepatitis C virus [7]; 92 nM with Hepatitis C virus [8]. This molecule gave an EC50 in the series on Hepatitis C virus [10] of 50 nM. In addition, the Drug metabolism result in [3] and in [9] was “Metabolite_Detected” throughout. Further, the “Ratio EC50” value in the series on Hepatitis C virus [5] is given as 7.8.

Consider `O=c1ccn([C@@H]2O[C@H](COP(=O)(O)OP(=O)(O)OP(=O)(O)O)[C@@H](O)C2(F)F)c(=O)[nH]1`, for which, in series [11], the IC50 was more than 100000 nM.

`CC(C)OC(=O)[C@H](C)N[P@@](=O)(OC[C@H]1O[C@@H](n2ccc(=O)[nH]c2=O)C(Cl)(Cl)[C@@H]1O)Oc1ccccc1`: the EC50 with Hepatitis C virus [1] came to 53 nM; with Hepatitis C virus [2], 70 nM; with Hepatitis C virus [4], 68 nM; in the series on Hepatitis C virus [16], 56 nM; with Hepatitis C virus [6] it was 66 nM; with Hepatitis C virus [7], 69 nM. In the series with Hepatitis C virus [10], this molecule displayed an EC50 of 18 nM. Moreover, the values for the half-life at 2 µM in [12], in series [13] and in [20] were 27 min, 43 min and 1380 min, respectively. Besides, the Drug metabolism entry was “Metabolite_Detected” in the series on Canis familiaris [14]; “Metabolite_Detected” in series [17]; 0.93 µM in the series on Canis familiaris [18]; “Metabolite_Detected” in series [19]; 3.5 µM in the series on Canis familiaris [21]. This molecule also came in with a CC50 at 144 h in series [15] of more than 100000 nM. In addition, the “Ratio EC50” value in the series on Hepatitis C virus [5] is 4.1.

In the case of `O=c1ccn([C@@H]2O[C@H](CO)[C@@H](O)C2(Cl)Cl)c(=O)[nH]1`, the CC50 at 144 h in [15] is more than 100000 nM. Moreover, the EC50 in the series with Hepatitis C virus [16] was more than 50000 nM.

Take `Nc1ccn([C@@H]2O[C@H](COP(=O)(O)OP(=O)(O)OP(=O)(O)O)[C@@H](O)C2(Cl)Cl)c(=O)n1`: in [22], the Ki amounted to 200 nM.

For the molecule `O=c1ccn([C@@H]2O[C@H](COP(=O)(O)OP(=O)(O)OP(=O)(O)O)[C@@H](O)C2(Cl)Cl)c(=O)[nH]1`, the inhibition result in series [23] is “Active”.

For the molecule `CC(C)OC(=O)[C@H](C)NP(=O)(OC[C@H]1O[C@@H](n2ccc(=O)[nH]c2=O)C(Cl)(Cl)[C@@H]1O)Oc1cccc(C2(C)CC2)c1` (single isomer, unassigned), the half-life at 2 µM came out at 12 min in series [12], 4 min in series [13] and 20 min in series [20]. In series [15], this molecule displayed a CC50 at 144 h of more than 100000 nM. Also, the EC50 in the series with Hepatitis C virus [16] came out at 230 nM.

The molecule `CC(C)OC(=O)[C@H](C)NP(=O)(OC[C@H]1O[C@@H](n2ccc(=O)[nH]c2=O)C(F)(F)[C@@H]1O)Oc1ccccc1` (single isomer, unassigned) displayed an EC50 in the series with Hepatitis C virus [8] of 970 nM.

`CC[C@H](C)OC(=O)[C@H](C)NP(=O)(OC[C@H]1O[C@@H](n2ccc(=O)[nH]c2=O)C(Cl)(Cl)[C@@H]1O)Oc1ccccc1` (single isomer, unassigned): the half-life at 2 µM was found to be 11 min in [12], 7 min in [13] and 140 min in series [20]. Further, the CC50 at 144 h in series [15] is more than 100000 nM. Moreover, in the series on Hepatitis C virus [16], the EC50 turned out to be 83 nM.

Take `C[C@H](NP(=O)(OC[C@H]1O[C@@H](n2ccc(=O)[nH]c2=O)C(Cl)(Cl)[C@@H]1O)Oc1ccccc1)C(=O)OC1CCCCC1` (single isomer, unassigned): the half-life at 2 µM amounted to 20 min in [12], 3 min in series [13] and 70 min in series [20]. Besides, the CC50 at 144 h in series [15] is more than 100000 nM. In addition, the EC50 in the series with Hepatitis C virus [16] was 160 nM.

Consider `CC(C)OC(=O)[C@H](C)NP(=O)(OC[C@H]1O[C@@H](n2ccc(=O)[nH]c2=O)C(Cl)(Cl)[C@@H]1O)Oc1ccc(C2(C)CC2)cc1` (single isomer, unassigned), for which the half-life at 2 µM turned out to be 8 min in series [12], 10 min in series [13] and 60 min in [20]. The molecule further came in with a CC50 at 144 h in series [15] of 62000 nM. Moreover, the EC50 in the series with Hepatitis C virus [16] stood at 340 nM.

With `CC(C)OC(=O)[C@H](C)NP(=O)(OC[C@H]1O[C@@H](n2ccc(=O)[nH]c2=O)C(Cl)(Cl)[C@@H]1O)Oc1cccc(C2CCC2)c1` (single isomer, unassigned), the half-life at 2 µM in series [12] was 8 min; in [13], 3 min; in series [20], 20 min. For the same molecule, in series [15], the CC50 at 144 h was more than 100000 nM. In the series on Hepatitis C virus [16], the EC50 came to 220 nM.

For `CC[C@@H](C)OC(=O)[C@H](C)NP(=O)(OC[C@H]1O[C@@H](n2ccc(=O)[nH]c2=O)C(Cl)(Cl)[C@@H]1O)Oc1ccccc1` (single isomer, unassigned), the results for the half-life at 2 µM in series [12], in [13] and in series [20] were 11 min, 8 min and 140 min, respectively. This molecule displayed a CC50 at 144 h in series [15] of more than 100000 nM. The EC50 with Hepatitis C virus [16] was determined as 110 nM.

With `C[C@@]1(F)[C@H](O)[C@@H](COP(=O)(O)OP(=O)(O)OP(=O)(O)O)O[C@H]1n1ccc(=O)[nH]c1=O` [GS-461203], in series [11], affinity was put at a Ki of 490 nM.

The values are drawn from ChEMBL document CHEMBL4052672, “Discovery of β-d-2'-deoxy-2'-dichlorouridine nucleotide prodrugs as potent inhibitors of hepatitis C virus replication” (Bioorg Med Chem Lett, 2017).
